In patent publication US11135145B2 (priority 2015, dated 2021):
Values joined by “and” are separate entries in the source; they are usually repeats but may differ in a detail not shown here. Equal values may be shown once. Read-outs that look alike come from different tables or passages of the source.

Assays:
[1] = system: NQO-1 antioxidant response element (NQO-1 - ARE); assay: NQO-1-ARE luciferase reporter HepG2 cell line; format: cell-based, human; settings: for NQO-1—ARE transcription in HepG2 cells (in words): 5 μM; for NQO-1 - ARE transcription, normalised to positive control (blank = 0%, 10 μM trans-resveratrol = 100%): 5 μM single compound; for NQO-1 - ARE transcription, normalised to positive control (blank = 0%, 10 μM trans-resveratrol = 100%) / NQO-1 - ARE transcription, normalised to positive control: HepG2, 6 hours, n = 3, ± SD
Description: A pGL4.22[luc2CP/puro] reporter vector containing NQO-1-ARE was transfected into the HepG2 cell line according to the method set forth in Xue et al (Biochem J 443: 213-222, (2012)). Transfected HepG2 cells were selected with puromycin (1 μg/ml). After culture for 3 weeks, puromycin-resistant cells were screened for luciferase activity after treatment with 4 μM sulforaphane for 6 hours. After validation of positive clones by measuring luciferase activity, the NQO-1-ARE stable cell line was expanded in selection media.
(§1) Stable transfectant cell line was incubated with and without test compounds for 6 hours in MEM with 10% fetal calf serum and 2 mM glutamine under an atmosphere of 5% CO2 in air, 100% humidity and 37° C. For the reporter assay, 100 μl Cell Culture Lysis Reagent (CCLR, Promega) was added to cell and shaken gently for 30 minutes. The mixture of cell lysate was centrifuged (12,000 g, 5 minutes, 4° C.) and an aliquot (20 μl) of supernatant used in the reporter assay. The luciferase activity was determined using a Luciferase Assay System (Promega). The luciferase response is given in Relative Light Units (RLU).
(§2) These were produced by transfection of a pGL4.22[luc2CP/puro] reporter vector containing NQO1-ARE or GLO1-ARE into the HepG2 cell line. Transfected HepG2 cells were selected with puromycin (1 μg/ml). After culture for 3 weeks, puromycin-resistant cells were screened for luciferase activity after treatment with 4 μM SFN for 6 h. After validation of positive clones by measuring luciferase activity, the stable cell line was expanded in selection media and thereafter used in studies for screening of bioactive compounds and synergism. Stable transfectant cell lines were incubated with and without bioactive compounds and combination of tRES and HESP (0.625-5.0 μM) for 6 h in MEM medium with 10% fetal calf serum and 2 mM glutamine under an atmosphere of 5% CO2 in air, 100% humidity and 37° C. This incubation period was optimum to judge initial rate of increase in transcriptional response in cells treated with compounds without increase in untreated controls. For the reporter assay, 100 μl Cell Culture Lysis Reagent (CCLR, Promega, Southampton, UK) was added to cell and shaken gently for 30 min. The mixture of cell lysate was centrifuged (12,000 g, 5 min, 4° C.) and an aliquot (20 μl) of supernatant used in the reporter assay. The luciferase activity was determined using a Luciferase Assay System (Promega). The luciferase response is given in Relative Light Units (RLU). Data are corrected for blank response and normalised to the highest effect (100%) achieved with 10 μM tRES. Data of normalised responses (blank=0%, 10 μM tRES=100%) for varied bioactive concentrations are fitted by non-linear regression to a dose-response curve, E=Emax×[Bioactive]^n/(EC50^n+[Bioactive]^n), solving for EC50 and n (logistic regression coefficient—also called the Hill coefficient). Nrf2-dependent transcriptional response was verified by siRNA silencing of Nrf2, as described in Xue et al., Biochem J 443, 213-222 (2012).

[2] = system: glyoxalase 1 antioxidant response element (GLO1-ARE); assay: Stable transfectant GLO1-ARE luciferase reporter HepG2 cell line; format: cell-based, human; settings: for GLO1-ARE transcription, normalised to positive control (blank = 0%, 10 μM trans-resveratrol = 100%): 5 μM single compound; for GLO1-ARE transcription, normalised to positive control (blank = 0%, 10 μM trans-resveratrol = 100%) / GLO1-ARE transcription, normalised to positive control: 6 hours, n = 3, ± SD; for Emax / EC50: Homo sapiens; for Emax: 10 μM tRES = 100%
Description: A pGL4.22[luc2CP/puro] reporter vector containing GLO1-ARE was transfected into the HepG2 cell line according to the method set forth in Xue et al. (Biochem. J., 443, 213-222 (2012)). Transfected HepG2 cells were selected with puromycin (1 μg/ml). After culture for 3 weeks, puromycin-resistant cells were screened for luciferase activity after treatment with 4 μM sulforaphane for 6 hours. After validation of positive clones by measuring luciferase activity, the GLO1-ARE stable cell line, R1F3, was expanded in selection media.
as §1, with “line R1F3” for “line”
as §2

[3] = system: human BJ fibroblasts; assay: Cytotoxicity in human BJ fibroblasts in primary culture; format: cell-based; settings: for toxicity (cytotoxicity): individually or with 5 μM combination with primary bioactive compound, concentrations ≤20 μM
Description: Primary human aortal endothelial cells (HAEC) were purchased from Lonza (Slough, U.K). HAEC cells were grown in proprietary large vessel endothelial cell basal media supplemented with large vessel endothelial cell growth supplement (containing hydrocortisone, human epidermal growth factor, human fibroblast growth factor with heparin and in 2% (/v/) FBS), 25 μg/ml gentamicin and 50 ng/ml amphotericin B. Human dermal foreskin BJ fibroblasts at cumulative population doubling of 22 were purchased from the European Collection of Animal Cell Cultures (Porton Down, UK). They were cultured in MEM medium with 10% fetal calf serum and 2 mM glutamine under an atmosphere of 5% CO2 in air, 100% humidity and 37° C.

[4] = reviewed in Vang et al. and Parhiz et al.; cited from earlier work
[5] = HATFF study: total urinary metabolites of tRES and HESP (LC-MS/MS); format: in vivo, human; settings: urine
[6] = system: matrix metalloproteinase-3 protein (MMP); assay: Cellular MMP-3 protein marker; format: cell-based, human; settings: BJ fibroblasts; 5 μM
[7] = system: oxidised glutathione (GSSG); assay: Cellular GSSG content; format: cell-based, human; settings: HAECs, BJ fibroblasts and HepG2 cells; 5 μM single compound
[8] = system: GSH; assay: Cellular GSH content; format: cell-based, human; settings: HAECs, BJ fibroblasts and HepG2 cells; 5 μM single compound
[9] = dietary supplement of 150 mg HESP (Takumi et al.); cited from earlier work
[10] = system: NQO-1 mRNA; assay: NQO-1 mRNA by digital mRNA profiling (NanoString nCounter); format: cell-based; settings: human dermal foreskin BJ fibroblasts; 5 μM of each compound; 12 hours; n = 3; ± SD
Description: (§3) Human dermal foreskin BJ fibroblasts at cumulative population doubling of 22 were purchased from the European Collection of Animal Cell Cultures (Porton Down, UK). They were cultured in Eagle's Minimum Essential Medium (MEM) with 10% fetal calf serum and 2 mM glutamine under an atmosphere of 5% CO2 in air, 100% humidity and 37° C.

[11] = system: ICAM1 mRNA; assay: ICAM1 mRNA, focused quantitative mRNA profiling; format: cell-based, human; settings: HAECs
[12] = system: HO-1 mRNA; assay: HO-1 (HMOX1) mRNA by digital mRNA profiling (NanoString nCounter); format: cell-based; settings: human dermal foreskin BJ fibroblasts; 5 μM of each compound; 12 hours; n = 3; ± SD
Description: as §3

[13] = patients with type 2 diabetes; 1.7 g metformin per day; cited from earlier work
[14] = system: HO-1 gene expression; settings: WO 2014/095289 Example 4; cited from earlier work
[15] = system: human hair follicle; settings: WO 2014/095289 Example 3; cited from earlier work
[16] = system: NQO-1 gene expression; settings: WO 2014/095289 Example 4; cited from earlier work
[17] = compound alone, HepG2 reporter, 6 h, read-out: EC50 for GLO1-ARE transcriptional response

Structure (SMILES): O=C1CC(c2ccc(O)c(O)c2)Oc2cc(O)cc(O)c21 (stereo not drawn) [Eriodictyol, 2-(3,4-Dihydroxyphenyl)-5,7-dihydroxy-4-chromanone]
- NQO-1—ARE transcription in HepG2 cells (in words) [1]: up-regulate
- NQO-1 - ARE transcription, normalised to positive control (blank = 0%, 10 μM trans-resveratrol = 100%) [1]: 95.3 ± 14.7%

Structure (SMILES): O=C1C[C@@H](c2ccc(O)cc2)Oc2cc(O)cc(O)c21 [Naringenin, naringenin, reference compound]
- NQO-1—ARE transcription in HepG2 cells (in words) [1]: does not up-regulate
- NQO-1 - ARE transcription, normalised to positive control (blank = 0%, 10 μM trans-resveratrol = 100%) [1]: −2.75 ± 5.24%

Structure (SMILES): Oc1cc(O)cc(/C=C/c2ccc(O)c(O)c2)c1 [Piceatannol, piceatannol]
- GLO1-ARE transcription, normalised to positive control (blank = 0%, 10 μM trans-resveratrol = 100%) ([2]; HepG2): 61.3 ± 31.0%
- NQO-1 - ARE transcription, normalised to positive control (blank = 0%, 10 μM trans-resveratrol = 100%) [1]: 66.6 ± 2.4%

Structure (SMILES): COc1cc(/C=C/c2ccc(O)cc2)cc(OC)c1 [Pterostilbene, pterostilbene]
- GLO1-ARE transcription, normalised to positive control (blank = 0%, 10 μM trans-resveratrol = 100%) ([2]; HepG2): 37.5 ± 18.3%
- NQO-1 - ARE transcription, normalised to positive control (blank = 0%, 10 μM trans-resveratrol = 100%) [1]: 41.8 ± 2.7%

Structure (SMILES): COc1ccc(C2CC(=O)c3c(O)cc(O)cc3O2)cc1O (stereo not drawn) [hesperetin, 2,3-Dihydro-5,7-dihydroxy-2-(3-hydroxy-4-methoxyphenyl)-4H-1-benzopyran-4-one]
- GLO1-ARE transcription, normalised to positive control (blank = 0%, 10 μM trans-resveratrol = 100%) ([2]; HepG2): 13.0 ± 1.6%
- logistic regression coefficient n, GLO1-ARE response ([2]; HESP alone): 2.01±0.02
- Emax ([2]; HepG2, compound alone): 24.4 ± 0.1%
- EC50 [2, 17]: 590 ± 10 nM
- toxicity (cytotoxicity) ([3]; BJ fibroblasts): no toxicity
- viability of BJ cells in vitro ([3]; HESP (40 μM) with and without 5 μM tRES): minor decrease
- safety assessments (tolerability) [4]: highly tolerated
- eriodictyol (demethylated HESP) in study samples [5]: no eriodctyol (demethylated HESP), was detected
- cellular MMP-3 protein [6]: increase
- cellular level of GSSG [7]: did not change
- NQO-1 - ARE transcription, normalised to positive control (blank = 0%, 10 μM trans-resveratrol = 100%) [1]: 7.9 ± 0.7%
- cellular level of GSH [8]: did not change
- peak plasma concentration of HESP [9]: 6.7 µM
- NQO-1 mRNA (relative mRNA copy numbers as a % of vehicle control) [10]: 93.0 ± 3.5 % of vehicle control
- ICAM1 mRNA ([11]; 5 μM HESP individually, 6 h post-treatment): tended to increased
- HO-1 mRNA (relative mRNA copy numbers as a % of vehicle control) [12]: 95.4 ± 3.7 % of vehicle control

Structure (SMILES): CN(C)C(=N)N=C(N)N [metformin]
- ΔOGIS [13]: +54 mlmin^−1m^−2

Structure (SMILES): C[S+]([O-])CCCCN=C=S (stereo not drawn) [sulforaphane]
- HO-1 gene expression in human hair follicles [14]: significantly up-regulates
- human hair follicle growth [15]: significantly up-regulates
- NQO-1 gene expression in human hair follicles [16]: significantly up-regulates

Structure (SMILES): Oc1ccc(/C=C/c2cc(O)cc(O)c2)cc1 [trans-resveratrol]
- GLO1-ARE transcription, normalised to positive control ([2]; 0.625 μM trans-resveratrol, 0 μM hesperetin, HepG2): 4.0 ± 2.2%
- GLO1-ARE transcription, normalised to positive control ([2]; 1.25 μM trans-resveratrol, 0 μM hesperetin, HepG2): 19.2 ± 7.6%
- GLO1-ARE transcription, normalised to positive control ([2]; 2.5 μM trans-resveratrol, 0 μM hesperetin, HepG2): 53.8 ± 7.4%
- GLO1-ARE transcription, normalised to positive control (blank = 0%, 10 μM trans-resveratrol = 100%) ([2]; HepG2): 67.6 ± 14.5%
- GLO1-ARE transcription, normalised to positive control ([2]; 10 μM trans-resveratrol, 0 μM hesperetin (positive control = 100%), HepG2): 100.0 ± 2.9%
- predicted increase of GLO1-ARE transcriptional response ([2]; 0.1-1.0 tRES in the presence of 5 μM HESP): 3-79 fold
- increased GLO1-ARE transcriptional response over additive effects ([2]; 0.1-1.0 tRES in the presence of 5 μM HESP, predicted): up to 79%
- Emax of tRES, GLO1-ARE response ([2]; 0.625-10 μM tRES with 5 μM HESP): maintaining the Emax
- EC50 ([2]; HepG2, 0.625-10 μM tRES with 5 μM HESP, read-out: EC50 of tRES for GLO1-ARE transcriptional response): 1460 ± 100 nM
- Emax ([2]; HepG2, compound alone): 100 ± 8.9%
- EC50 [2, 17]: 2520 ± 190 nM
- toxicity (cytotoxicity) ([3]; BJ fibroblasts): no toxicity
- cell number ([3]; tRES (5 μM) with 0.625 μM HESP, BJ fibroblasts): minor increase
- viability of BJ cells in vitro ([3]; tRES (40 μM) with 5 μM HESP): minor decrease
- cellular MMP-3 protein [6]: decreases
- cellular level of GSSG [7]: did not change
- NQO-1 - ARE transcription, normalised to positive control ([1]; 0.625 μM trans-resveratrol, 0 μM hesperetin): 1.9 ± 8.6%
- NQO-1 - ARE transcription, normalised to positive control ([1]; 1.25 μM trans-resveratrol, 0 μM hesperetin): 6.4 ± 2.5%
- NQO-1 - ARE transcription, normalised to positive control ([1]; 2.5 μM trans-resveratrol, 0 μM hesperetin): 15.7 ± 6.7%
- NQO-1 - ARE transcription, normalised to positive control (blank = 0%, 10 μM trans-resveratrol = 100%) [1]: 58.0 ± 2.5% and 56.9 ± 1.7%
- NQO-1 - ARE transcription, normalised to positive control ([1]; 10 μM trans-resveratrol, 0 μM hesperetin (positive control = 100%)): 100.0 ± 10.0%
- cellular level of GSH [8]: did not change
- ICAM1 mRNA ([11]; 5 μM tRES individually, 48 h post-treatment): tended to increased
